Drawing on US7585859B2, “PDE4B inhibitors and uses therefor” (Plexxikon, Inc., priority 2004, dated 2009), this text covers IC50 for 31 compounds.

pIC50: −log10 of the molar value. Where only a bound is given, the exact number is not on record here.

The target in test [1] is T1, PDE4B: The catalytic domain of human PDE4B from S152-S528 (Homo sapiens, UniProt Q07343).
T1 construct: His6 (N); thrombin cleavage site (N); made in house; host or cells: E. coli
Nature of the test: PDE4 IC50 determination by Scintillation Proximity Assay, PDE4B. It counts as biochemical. The following applies: Table 1B, Formula I compounds; read-out: IC50 PDE4B. Summed up: (§1)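 Enzyme was added to compound and [^3H]cAMP, then incubated 30 min at 30° (PDE4B 80 ng/ml; PDE4D 4 ng/ml). Product [^3H]AMP bound to SPA beads and was counted. IC50 was fitted by non-linear regression against DMSO and roflumilast controls.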

Test [2] concerns the target T2, PDE4D (Homo sapiens, UniProt Q08499).
T2 construct: PDE4D: The catalytic domain of human PDE4B from S3 16-V692; His6 (N); thrombin cleavage site (N); made in house; host or cells: E. coli
Nature of the test: PDE4 IC50 determination by Scintillation Proximity Assay, PDE4D. It counts as biochemical. To be noted: Table 1B, Formula I compounds; read-out: IC50 PDE4D. An outline of the steps:
as §1

T1 sequence (Q07343 with tags, fused parts or gaps): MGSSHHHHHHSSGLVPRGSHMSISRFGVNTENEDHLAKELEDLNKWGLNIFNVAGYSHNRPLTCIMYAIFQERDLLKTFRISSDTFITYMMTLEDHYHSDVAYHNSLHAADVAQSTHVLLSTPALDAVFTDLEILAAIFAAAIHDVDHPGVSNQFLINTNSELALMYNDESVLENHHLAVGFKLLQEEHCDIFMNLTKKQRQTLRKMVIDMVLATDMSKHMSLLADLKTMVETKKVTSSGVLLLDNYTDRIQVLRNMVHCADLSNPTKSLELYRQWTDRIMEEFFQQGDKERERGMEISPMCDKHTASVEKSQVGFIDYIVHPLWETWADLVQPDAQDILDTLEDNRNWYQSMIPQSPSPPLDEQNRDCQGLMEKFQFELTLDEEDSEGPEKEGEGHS
T2 sequence (Q08499 380-756): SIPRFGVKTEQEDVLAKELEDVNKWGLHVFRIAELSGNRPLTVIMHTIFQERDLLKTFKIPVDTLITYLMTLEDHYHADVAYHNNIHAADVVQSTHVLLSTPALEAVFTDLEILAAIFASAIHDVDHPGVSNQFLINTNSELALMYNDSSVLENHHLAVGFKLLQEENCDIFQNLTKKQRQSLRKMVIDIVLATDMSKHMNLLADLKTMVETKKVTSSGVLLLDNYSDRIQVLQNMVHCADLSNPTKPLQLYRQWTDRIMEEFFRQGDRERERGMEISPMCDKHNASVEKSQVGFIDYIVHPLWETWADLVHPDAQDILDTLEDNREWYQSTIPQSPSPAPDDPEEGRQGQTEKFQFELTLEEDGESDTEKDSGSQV

With `COC(=O)C(CCSC)Nc1sc(C(=O)c2c(-c3ccccc3)noc2C)c(N)c1C#N` (centres unmarked) [Compound 1-131, 2-[4-Amino-3-cyano-5-(5-methyl-3-phenyl-isoxazole-4-carbonyl)-thiophen-2-ylamino]-4-methylsulfanyl-butyric acid methyl ester], the negative-log IC50 (pIC50) in test [1] is greater than 5.00; in test [2] it was less than 5.00.

`COc1ccc(CNc2sc(C(=O)c3c(-c4ccccc4)noc3C)c(N)c2C#N)cc1OC` [Compound 1-132, 4-Amino-2-(3,4-dimethoxy-benzylamino)-5-(5-methyl-3-phenyl-isoxazole-4-carbonyl)-thiophene-3-carbonitrile]: the pIC50 in test [1] and in test [2] was greater than 5.00 throughout.

Turning to `Cc1onc(-c2ccccc2)c1C(=O)c1sc(Nc2ccc(C(=O)NC3CCOC3=O)cc2)c(C#N)c1N` (centres unmarked) [Compound 1-133, 4-[4-Amino-3-cyano-5-(5-methyl-3-phenyl-isoxazole-4-carbonyl)-thiophen-2-ylamino]-N-(2-oxo-tetrahydro-furan-3-yl)-benzamide], the pIC50 in test [1] and in test [2] was greater than 5.00 throughout.

Regarding `Cc1onc(-c2ccccc2)c1C(=O)c1sc(NC2CCOC2=O)c(C#N)c1N` (centres unmarked) [Compound 1-134, 4-Amino-5-(5-methyl-3-phenyl-isoxazole-4-carbonyl)-2-(2-oxo-tetrahydro-furan-3-ylamino)-thiophene-3-carbonitrile], the values for the pIC50 in test [1] and in test [2] were greater than 5.00 and less than 5.00, respectively.

For the compound `CCOC(=O)c1cc(C(=O)c2sc(NCCN3CCCCC3)c(C#N)c2N)on1` [Compound 1-135, 5-[3-Amino-4-cyano-5-(2-piperidin-1-yl-ethylamino)-thiophene-2-carbonyl]-isoxazole-3-carboxylic acid ethyl ester], the pIC50 in test [1] and in test [2] was greater than 5.00 in each case.

Take `CCOC(=O)c1cc(C(=O)c2sc(NC(=O)c3ccccc3C)c(C#N)c2N)on1` [Compound 1-136, 5-[3-Amino-4-cyano-5-(2-methyl-benzoylamino)-thiophene-2-carbonyl]-isoxazole-3-carboxylic acid ethyl ester]: the pIC50 in test [1] and in test [2] was less than 5.00 each time.

Take `CCOC(=O)c1cc(C(=O)c2sc(NC(CC(C)C)C(=O)OC)c(C#N)c2N)on1` (centres unmarked) [Compound 1-137, 5-[3-Amino-4-cyano-5-(1-methoxycarbonyl-3-methyl-butylamino)-thiophene-2-carbonyl]-isoxazole-3-carboxylic acid ethyl ester]: the pIC50 in test [1] was greater than 5.00; in test [2], less than 5.00.

On to `CCOC(=O)c1cc(C(=O)c2sc(Nc3ccc(C(=O)NC4CCOC4=O)cc3)c(C#N)c2N)on1` (centres unmarked) [Compound 1-138], for which the pIC50 in test [1] and in test [2] was greater than 5.00 in each case.

As to `CCOC(=O)c1cc(C(=O)c2sc(NC3CCOC3=O)c(C#N)c2N)on1` (centres unmarked) [Compound 1-140, 5-[3-Amino-4-cyano-5-(2-oxo-tetrahydro-furan-3-ylamino)-thiophene-2-carbonyl]-isoxazole-3-carboxylic acid ethyl ester], the results for the pIC50 in test [1] and in test [2] were greater than 5.00 and less than 5.00, respectively.

For `COC(=O)C(CC(C)C)Nc1sc(C(=O)c2cc(-c3ccccc3)no2)c(N)c1C#N` (centres unmarked) [Compound 1-141, 2-[4-Amino-3-cyano-5-(3-phenyl-isoxazole-5-carbonyl)-thiophen-2-ylamino]-4-methyl-pentanoic acid methyl ester], the pIC50 in test [1] and in test [2] was greater than 5.00 each time.

Consider `N#Cc1c(Nc2ccccc2F)sc(C(=O)c2ccccn2)c1N` [Compound 1-144, 4-Amino-2-(2-fluoro-phenylamino)-5-(pyridine-2-carbonyl)-thiophene-3-carbonitrile], for which the pIC50 in test [1] and in test [2] was greater than 5.00 throughout.

For the compound `COc1ccc(Nc2sc(C(=O)c3ccccn3)c(N)c2C#N)cc1` [Compound 1-145, 4-Amino-2-(4-methoxy-phenylamino)-5-(pyridine-2-carbonyl)-thiophene-3-carbonitrile], the pIC50 in test [1] and in test [2] was less than 5.00 throughout.

For the compound `N#Cc1cccc(Nc2sc(C(=O)c3ccccn3)c(N)c2C#N)c1` [Compound 1-146, 4-Amino-2-(3-cyano-phenylamino)-5-(pyridine-2-carbonyl)-thiophene-3-carbonitrile], the pIC50 was greater than 5.00 in test [1] and less than 5.00 in test [2].

In the case of `N#Cc1c(Nc2ccc3c(c2)CCC3)sc(C(=O)c2ccccn2)c1N` [Compound 1-147, 4-Amino-2-(indan-5-ylamino)-5-(pyridine-2-carbonyl)-thiophene-3-carbonitrile], the pIC50 in test [1] and in test [2] was greater than 5.00 each time.

Take `COC(=O)c1ccccc1Nc1sc(C(=O)c2ccccn2)c(N)c1C#N` [Compound 1-148, 2-[4-Amino-3-cyano-5-(pyridine-2-carbonyl)-thiophen-2-ylamino]-benzoic acid methyl ester]: the pIC50 in test [1] and in test [2] was greater than 5.00 throughout.

Turning to `COc1ccc(CNc2sc(C(=O)c3ccccn3)c(N)c2C#N)cc1OC` [Compound 1-149, 4-Amino-2-(3,4-dimethoxy-benzylamino)-5-(pyridine-2-carbonyl)-thiophene-3-carbonitrile], the pIC50 in test [1] and in test [2] was greater than 5.00 in each case.

As for `N#Cc1c(Nc2ccc(Oc3ccccc3)cc2)sc(C(=O)c2ccccn2)c1N` [Compound 1-150, 4-Amino-2-(4-phenoxy-phenylamino)-5-(pyridine-2-carbonyl)-thiophene-3-carbonitrile], the negative-log IC50 (pIC50) in test [1] was greater than 5.00; in test [2], less than 5.00.

As for `N#Cc1c(Nc2ccc(C(=O)NC3CCOC3=O)cc2)sc(C(=O)c2ccccn2)c1N` (centres unmarked) [Compound 1-151, 4-[4-Amino-3-cyano-5-(pyridine-2-carbonyl)-thiophen-2-ylamino]-N-(2-oxo-tetrahydro-furan-3-yl)-benzamide], the pIC50 is greater than 5.00 in test [1] and less than 5.00 in test [2].

Consider `N#Cc1c(NC2CCOC2=O)sc(C(=O)c2ccccn2)c1N` (centres unmarked) [Compound 1-152, 4-Amino-2-(2-oxo-tetrahydro-furan-3-ylamino)-5-(pyridine-2-carbonyl)-thiophene-3-carbonitrile], for which the pIC50 in test [1] and in test [2] was less than 5.00 throughout.

Turning to `CCc1ccccc1Nc1sc(C(=O)c2ccccn2)c(N)c1C#N` [Compound 1-153, 4-Amino-2-(2-ethyl-phenylamino)-5-(pyridine-2-carbonyl)-thiophene-3-carbonitrile], the results for the pIC50 in test [1] and in test [2] were greater than 5.00 and less than 5.00, respectively.

Take `COC(=O)C(CC(C)C)Nc1sc(C(=O)c2cc(OC)ccc2OC)c(N)c1C#N` (centres unmarked) [Compound 1-154, 2-[4-Amino-3-cyano-5-(2,5-dimethoxy-benzoyl)-thiophen-2-ylamino]-4-methyl-pentanoic acid methyl ester]: the results for the pIC50 in test [1] and in test [2] were greater than 5.00 and less than 5.00, respectively.

In the case of `COC(=O)C(CCSC)Nc1sc(C(=O)c2cccc(Cl)c2)c(N)c1C#N` (centres unmarked) [Compound 1-156], the pIC50 in test [1] and in test [2] was greater than 5.00 each time.

Take `Cc1ccc(C(=O)c2sc(Nc3ccc4c(c3)CCC4)c(C#N)c2N)c(C)c1` [Compound 1-157, 4-Amino-5-(2,4-dimethyl-benzoyl)-2-(indan-5-ylamino)-thiophene-3-carbonitrile]: the pIC50 in test [1] and in test [2] was greater than 5.00 each time.

Consider `Cc1ccc(C(=O)c2sc(Nc3ccc(Oc4ccccc4)cc3)c(C#N)c2N)c(C)c1` [Compound 1-158, 4-Amino-5-(2,4-dimethyl-benzoyl)-2-(4-phenoxy-phenylamino)-thiophene-3-carbonitrile], for which the figures for the pIC50 in test [1] and in test [2] were greater than 5.00 and less than 5.00, respectively.

With `N#Cc1c(NC2CCOC2=O)sc(C(=O)c2csc3ccccc23)c1N` (centres unmarked) [Compound 1-159, 4-Amino-5-(benzo[b]thiophene-3-carbonyl)-2-(2-oxo-tetrahydro-furan-3-ylamino)-thiophene-3-carbonitrile], the pIC50 in test [1] and in test [2] was greater than 5.00 each time.

Take `Cc1ccccc1C(=O)Nc1sc(C(=O)c2ccccn2)c(N)c1C#N` [Compound 1-160, N-[4-Amino-3-cyano-5-(pyridine-2-carbonyl)-thiophen-2-yl]-2-methyl-benzamide]: the pIC50 in test [1] is greater than 5.00; in test [2], less than 5.00.

In the case of `COc1ccc(CNc2sc(C(=O)c3ccc(C)cc3C)c(N)c2C#N)cc1OC` [Compound 1-162, 4-Amino-2-(3,4-dimethoxy-benzylamino)-5-(2,4-dimethyl-benzoyl)-thiophene-3-carbonitrile], the pIC50 in test [1] and in test [2] was greater than 5.00 throughout.

For the compound `N#Cc1c(Nc2ccc(Oc3ccccc3)cc2)sc(C(=O)c2cccc(Cl)c2)c1N` [Compound 1-163, 4-Amino-5-(3-chloro-benzoyl)-2-(4-phenoxy-phenylamino)-thiophene-3-carbonitrile], the pIC50 in test [1] was greater than 5.00; in test [2], less than 5.00.

Regarding `N#Cc1c(Nc2ccc(OC(F)F)cc2)sc(C(=O)c2ccc(OC(F)F)cc2)c1N` [Compound 1-165, 4-Amino-5-(4-difluoro-methoxy-benzoyl)-2-(4-difluoromethoxy-phenylamino)-thiophene-3-carbonitrile], the pIC50 in test [1] and in test [2] was greater than 5.00 throughout.

In the case of `N#Cc1c(Nc2ccc(Cl)c(C(F)(F)F)c2)sc(C(=O)c2ccccc2)c1N` [Compound 1-168, 4-Amino-5-benzoyl-2-(4-chloro-3-trifluoromethyl-phenylamino)-thiophene-3-carbonitrile], the pIC50 in test [1] and in test [2] was greater than 5.00 in each case.

`N#Cc1c(Nc2cccc([N+](=O)[O-])c2)sc(C(=O)c2ccccc2)c1N` [Compound 1-170, 4-Amino-5-benzoyl-2-(3-nitro-phenylamino)-thiophene-3-carbonitrile]: the pIC50 in test [1] and in test [2] was greater than 5.00 in each case.
